Like-named read-outs stand apart in the source and are kept apart here.
Legend:
[1] = molecular target: CSF1R in bone-marrow derived macrophages from mice (Mus musculus (Mouse), UniProt P09581); experiment: Effect of CSF1R inhibitors on MAPK signalling in mouse bone-marrow derived macrophages; type: cell-based; details: for BMDM fold relative to PLX3397: Fold change: IC50 inhibitor/IC50 PLX3397, mouse BMDM
CSF1R enzyme = CSF1R enzyme (Homo sapiens (Human), UniProt P07333); experiment: CSF1R enzymatic inhibitory assay (Z'-LYTE, FRET); type: biochemical; details: Z'-LYTE assay platform, 10-point titrations in duplicates, ATP equal to Km
Chain of CSF1R enzyme (P07333 20-972): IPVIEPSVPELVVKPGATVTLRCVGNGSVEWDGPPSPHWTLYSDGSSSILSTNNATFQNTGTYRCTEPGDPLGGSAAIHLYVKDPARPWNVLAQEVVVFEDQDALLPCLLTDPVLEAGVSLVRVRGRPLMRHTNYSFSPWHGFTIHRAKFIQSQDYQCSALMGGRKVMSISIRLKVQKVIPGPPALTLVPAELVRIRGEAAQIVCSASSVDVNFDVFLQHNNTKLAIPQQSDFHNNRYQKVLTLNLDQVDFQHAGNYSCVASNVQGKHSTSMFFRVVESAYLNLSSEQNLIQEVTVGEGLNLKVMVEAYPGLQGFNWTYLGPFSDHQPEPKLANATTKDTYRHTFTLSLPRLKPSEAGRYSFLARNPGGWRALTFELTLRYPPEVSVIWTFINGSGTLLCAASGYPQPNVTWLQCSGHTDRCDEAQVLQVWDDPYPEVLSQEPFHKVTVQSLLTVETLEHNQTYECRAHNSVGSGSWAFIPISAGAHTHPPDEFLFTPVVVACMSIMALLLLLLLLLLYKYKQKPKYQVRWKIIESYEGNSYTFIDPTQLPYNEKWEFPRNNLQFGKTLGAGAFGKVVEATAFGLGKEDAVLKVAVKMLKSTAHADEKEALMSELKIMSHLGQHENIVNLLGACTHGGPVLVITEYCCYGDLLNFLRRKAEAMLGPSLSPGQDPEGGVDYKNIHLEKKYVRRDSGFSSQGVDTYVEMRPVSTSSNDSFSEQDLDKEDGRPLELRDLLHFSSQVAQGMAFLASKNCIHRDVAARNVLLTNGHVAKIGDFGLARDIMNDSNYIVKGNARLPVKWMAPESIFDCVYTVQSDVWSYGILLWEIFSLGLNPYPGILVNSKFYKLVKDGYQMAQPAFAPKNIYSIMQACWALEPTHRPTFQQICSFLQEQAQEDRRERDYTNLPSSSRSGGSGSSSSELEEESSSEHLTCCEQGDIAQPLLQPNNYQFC

Chain of CSF1R in bone-marrow derived macrophages from mice (P09581 20-977): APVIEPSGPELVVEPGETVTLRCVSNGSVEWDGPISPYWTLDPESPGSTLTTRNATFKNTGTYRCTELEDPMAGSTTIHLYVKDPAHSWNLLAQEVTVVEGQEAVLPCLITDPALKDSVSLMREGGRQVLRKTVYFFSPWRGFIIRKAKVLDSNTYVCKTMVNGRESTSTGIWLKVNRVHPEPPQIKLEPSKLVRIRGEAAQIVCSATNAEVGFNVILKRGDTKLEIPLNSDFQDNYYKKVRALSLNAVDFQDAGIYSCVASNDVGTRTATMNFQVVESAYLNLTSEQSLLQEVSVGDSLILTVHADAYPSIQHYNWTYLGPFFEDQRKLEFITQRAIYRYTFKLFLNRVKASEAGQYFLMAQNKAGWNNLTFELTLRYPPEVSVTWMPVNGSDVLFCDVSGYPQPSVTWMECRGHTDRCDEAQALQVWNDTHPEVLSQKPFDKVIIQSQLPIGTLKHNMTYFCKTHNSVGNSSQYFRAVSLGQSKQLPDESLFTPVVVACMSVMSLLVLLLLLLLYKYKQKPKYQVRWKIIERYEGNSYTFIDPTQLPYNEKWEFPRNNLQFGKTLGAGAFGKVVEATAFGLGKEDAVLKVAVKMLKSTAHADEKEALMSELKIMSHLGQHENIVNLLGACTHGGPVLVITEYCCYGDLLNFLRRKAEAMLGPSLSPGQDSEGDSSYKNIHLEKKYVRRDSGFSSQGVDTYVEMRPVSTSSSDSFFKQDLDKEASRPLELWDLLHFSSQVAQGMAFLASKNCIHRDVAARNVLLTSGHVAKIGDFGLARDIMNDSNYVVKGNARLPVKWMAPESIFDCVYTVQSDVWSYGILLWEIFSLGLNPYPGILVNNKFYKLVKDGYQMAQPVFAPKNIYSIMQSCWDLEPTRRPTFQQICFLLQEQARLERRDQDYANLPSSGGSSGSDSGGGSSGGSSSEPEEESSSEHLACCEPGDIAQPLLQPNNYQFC

SMILES | BMDM fold relative to PLX3397 [1] [fold] | IC50 ([1]; read-out: BMDM IC50) [nM] | IC50 (CSF1R enzyme) [nM] | IC50 [1] [nM]
Cc1ccc(Cc2ncnc3[nH]c(-c4ccc(CO)cc4)cc23)cc1 [Compound 5e, (4-(4-(4-Methylbenzyl)-7H-pyrrolo[2,3-d]pyrimidin-6-yl)phenyl)methanol] | >3 | > 300 | 1 | 
OCc1ccc(-c2cc3c(Cc4ccc(C(F)(F)F)cc4)ncnc3[nH]2)cc1 [Compound 5h, (4-(4-(4-(Trifluoromethyl)benzyl)-7H-pyrrolo[2,3-d]pyrimidin-6-yl)phenyl)methanol] | >5 | > 500 | 3.6 | 
CC(c1ccccc1)c1ncnc2[nH]c(-c3ccc(CO)cc3)cc12 (centres unmarked) [Compound 5i, (4-(4-(1-Phenylethyl)-7H-pyrrolo[2,3-d]pyrimidin-6-yl)phenyl)methanol] | >5 | > 500 | 3.8 | 
CCC(c1ccccc1)c1ncnc2[nH]c(-c3ccc(CO)cc3)cc12 (centres unmarked) [Compound 5j, (4-(4-(1-Phenylpropyl)-7H-pyrrolo[2,3-d]pyrimidin-6-yl)phenyl)methanol] | >5 | > 500 | 29 | 
OCc1ccc(-c2cc3c(C(F)c4ccccc4)ncnc3[nH]2)cc1 (centres unmarked) [Compound 5k, (4-(4-(Fluoro(phenyl)methyl)-7H-pyrrolo[2,3-d]pyrimidin-6-yl)phenyl)methanol] | 1.3 | 100 | 2.7 | 
OCc1ccc(-c2cc3c(Oc4ccccc4)ncnc3[nH]2)cc1 [Compound 9, (4-(4-Phenoxy-7H-pyrrolo[2,3-d]pyrimidin-6-yl)phenyl)methanol] | 1 | 107 | 1.5 | 
CNS(=O)(=O)c1ccc(-c2cc3c(Cc4ccccc4)ncnc3[nH]2)cc1 [Compound 16, 4-(4-Benzyl-7H-pyrrolo[2,3-d]pyrimidin-6-yl)-N-methylbenzenesulfonamide] |  |  | 1.7 | 
Cc1nn(C)cc1-c1cc2c(Cc3ccccc3)ncnc2[nH]1 [Compound 18, 4-Benzyl-6-(1,3-dimethyl-1H-pyrazol-4-yl)-7H-pyrrolo[2,3-d]pyrimidine] |  |  | 0.4 | 
CP(C)(=O)c1ccc(-c2cc3c(Cc4ccccc4)ncnc3[nH]2)cc1 [Compound 19, (4-(4-Benzyl-7H-pyrrolo[2,3-d]pyrimidin-6-yl)phenyl)dimethylphosphine oxide] |  |  | 1.5 | 
FC(F)(F)c1ccc(CNc2ccc(Cc3c[nH]c4ncc(Cl)cc34)cn2)cn1 [PLX3397, reference compound] |  |  |  | 70 to 150

More lines, main results first:

BMDM fold relative to PLX3397 [1] [fold] | IC50 ([1]; read-out: BMDM IC50) [nM] | IC50 (CSF1R enzyme) [nM] | SMILES | IC50 [1] [nM]
1 | 130 | 1.3 | OCc1ccc(-c2cc3c(Cc4ccccc4)ncnc3[nH]2)cc1 [Compound 5a, (4-(4-Benzyl-7H-pyrrolo[2,3-d]pyrimidin-6-yl)phenyl)methanol] | 
5 | 487 | 0.7 | OCc1ccc(-c2cc3c(Cc4ccccc4F)ncnc3[nH]2)cc1 [Compound 5b, (4-(4-(2-Fluorobenzyl)-7H-pyrrolo[2,3-d]pyrimidin-6-yl)phenyl)methanol] | 
>5 | > 500 | 1.9 | OCc1ccc(-c2cc3c(Cc4cccc(F)c4)ncnc3[nH]2)cc1 [Compound 5c, (4-(4-(3-Fluorobenzyl)-7H-pyrrolo[2,3-d]pyrimidin-6-yl)phenyl)methanol] | 
4.1 | 320 | 3.1 | OCc1ccc(-c2cc3c(Cc4ccc(F)cc4)ncnc3[nH]2)cc1 [Compound 5d, (4-(4-(4-Fluorobenzyl)-7H-pyrrolo[2,3-d]pyrimidin-6-yl)phenyl)methanol] | 
0.8 | 71 | 0.6 | CC(C)c1ccc(Cc2ncnc3[nH]c(-c4ccc(CO)cc4)cc23)cc1 [Compound 5f, (4-(4-(4-Isopropylbenzyl)-7H-pyrrolo[2,3-d]pyrimidin-6-yl)phenyl)methanol] | 
1.7 | 174 | 1.6 | CC(C)(C)c1ccc(Cc2ncnc3[nH]c(-c4ccc(CO)cc4)cc23)cc1 [Compound 5g, (4-(4-(4-(tert-Butyl)benzyl)-7H-pyrrolo[2,3-d]pyrimidin-6-yl)phenyl)methanol] | 
 |  | 11 | COc1ccc(-c2cc3c(Cc4ccccc4)ncnc3[nH]2)cc1 [Compound 10, 4-Benzyl-6-(4-methoxyphenyl)-7H-pyrrolo[2,3-d]pyrimidine] | 
 |  | 2.1 | CS(=O)(=O)Nc1ccc(-c2cc3c(Cc4ccccc4)ncnc3[nH]2)cc1 [Compound 14, N-(4-(4-Benzyl-7H-pyrrolo[2,3-d]pyrimidin-6-yl)phenyl)methanesulfonamide] | 
 |  | 7.2 | c1ccc(Cc2ncnc3[nH]c(-c4ccccc4)cc23)cc1 [Compound 15, 4-Benzyl-6-phenyl-7H-pyrrolo[2,3-d]pyrimidine] | 
 |  | 2 | CC(C)n1cc(-c2cc3c(Cc4ccccc4)ncnc3[nH]2)cn1 [Compound 17, 4-Benzyl-6-(1-isopropyl-1H-pyrazol-4-yl)-7H-pyrrolo[2,3-d]pyrimidine] | 

Reference: patent US20250353856A1, “COMPOUND ACTIVE AS INHIBITOR OF COLONY STIMULATION FACTOR-1 RECEPTOR (CSF-1R)” (Norwegian University of Science and Technology (NTNU), priority 2022, published 2025)
